Experimental findings from patent US10508104B2, “6-hydroxy-5-(phenyl/heteroarylsulfonyl)pyrimidin-4(1H)-one as APJ agonists” (Bristol-Myers Squibb Company, priority 2016, dated 2019) are described below.

pEC50: −log10 of the molar value.

For one assay, the target named is human APJ receptor (Homo sapiens (Human), UniProt P35414). Nature of the assay: Intracellular cAMP accumulation assay (APJ hcAMP, HTRF). The format is cell-based. Conditions: HEK293 cells stably expressing human APJ receptor; inhibition of forskolin-mediated cAMP production; read-out: Human APJ cAMP EC50 Potency range. The method in brief: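 HEK293 cells stably expressing human APJ, 5,000 per well, incubated 30 min at rt with compound, […] and 2 μM forskolin. cAMP measured by HTRF against a cAMP standard curve as inhibition of forskolin-driven production. EC50 from variable-slope sigmoidal fit.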
Sequence of human APJ receptor (P35414 whole entry): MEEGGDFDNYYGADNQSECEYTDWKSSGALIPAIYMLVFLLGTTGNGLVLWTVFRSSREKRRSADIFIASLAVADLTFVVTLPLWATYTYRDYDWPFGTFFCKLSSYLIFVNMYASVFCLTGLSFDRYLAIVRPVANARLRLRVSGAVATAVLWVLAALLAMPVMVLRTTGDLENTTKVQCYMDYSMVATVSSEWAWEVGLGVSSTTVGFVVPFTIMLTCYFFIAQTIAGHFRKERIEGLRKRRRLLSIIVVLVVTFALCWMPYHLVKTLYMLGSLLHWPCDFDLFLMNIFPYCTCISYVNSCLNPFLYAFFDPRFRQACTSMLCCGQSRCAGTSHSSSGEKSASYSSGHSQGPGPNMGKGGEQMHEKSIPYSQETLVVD
On to `CCCCc1nc(=O)c(S(=O)(=O)c2ccc(-c3ccc(F)cc3C(N)=O)cc2)c(O)n1[C@H](c1cccc(C#N)c1)C1CC1` [Example 477, 4′-({2-butyl-1-[(S)-(3-cyanophenyl)(cyclopropyl)methyl]-6-hydroxy-4-oxo-1,4-dihydropyrimidin-5-yl}sulfonyl)-4-fluoro-[1,1′-biphenyl]-2-carboxamide], for which the pEC50 is 8.00 to 11.00.

For the compound `CCCCc1nc(=O)c(S(=O)(=O)c2ccc(-c3ccc(F)nc3C)cc2)c(O)n1[C@@H](CC)c1cc(F)cc(F)c1` [Example 433, 2-butyl-1-[(1S)-1-(3,5-difluorophenyl)propyl]-5-[4-(6-fluoro-2-methylpyridin-3-yl)benzenesulfonyl]-6-hydroxy-1,4-dihydropyrimidin-4-one], the pEC50 was 8.00 to 11.00.

Consider `CCCCc1nc(=O)c(S(=O)(=O)C2CCN(C)CC2)c(O)n1-c1c(OC)cccc1OC` [Example 107, 2-Butyl-1-(2,6-dimethoxyphenyl)-6-hydroxy-5-((1-methylpiperidin-4-yl)sulfonyl)pyrimidin-4(1H)-one], for which the pEC50 was 8.00 to 11.00.

As for `CC[C@@H](c1cccc(C#N)c1)n1c(CC2CC2)nc(=O)c(S(=O)(=O)c2ccc(-c3cnccc3C#N)cc2)c1O` [Example 471, 3-[4-({1-[(1S)-1-(3-cyanophenyl)propyl]-2-(cyclopropylmethyl)-6-hydroxy-4-oxo-1,4-dihydropyrimidin-5-yl}sulfonyl)phenyl] pyridine-4-carbonitrile], the pEC50 was 8.00 to 11.00.

`CCCCc1nc(=O)c(S(=O)(=O)c2ccc(-c3cccc4c3CNC4=O)cc2)c(O)n1[C@@H](CC)c1cccc(C#N)c1` [Example 535, 3-[(1S)-1-{2-butyl-6-hydroxy-4-oxo-5-[4-(1-oxo-2,3-dihydro-1H-isoindol-4-yl)benzenesulfonyl]-1,4-dihydropyrimidin-1-yl}propyl]benzonitrile]: the pEC50 is 8.00 to 11.00.

With `CCCCc1nc(=O)c(S(=O)(=O)c2ccc(C(=O)NCC(F)(F)F)cc2)c(O)n1-c1c(OC)cccc1OC` [Example 90, 4-((2-Butyl-1-(2,6-dimethoxyphenyl)-6-hydroxy-4-oxo-1,4-dihydropyrimidin-5-yl)sulfonyl)-N-(2,2,2-trifluoroethyl)benzamide], the pEC50 is 8.00 to 11.00.

Consider `CCCCc1nc(=O)c(S(=O)(=O)c2ccc(-c3ccnc(F)c3C)cc2)c(O)n1[C@@H](CC)c1ccc(F)cc1` [Example 424, 2-butyl-5-[4-(2-fluoro-3-methylpyridin-4-yl)benzenesulfonyl]-1-[(1S)-1-(4-fluorophenyl)propyl]-6-hydroxy-1,4-dihydropyrimidin-4-one], for which the pEC50 was 8.00 to 11.00.

Staying with this assay, now noted: human APJ, cAMP accumulation; read-out: Human APJ cAMP EC50 Potency range.
As to `COC[C@@H](c1ccccc1)n1c(COC(C)C)nc(=O)c(S(=O)(=O)c2ccc(-c3ccnc(F)c3C)cc2)c1O` [Example 327, 5-[4-(2-fluoro-3-methylpyridin-4-yl)benzenesulfonyl]-6-hydroxy-1-[(1R)-2-methoxy-1-phenylethyl]-2-[(propan-2-yloxy)methyl]-1,4-dihydropyrimidin-4-one], the pEC50 is 8.00 to 11.00.

Turning to `CCCCCc1nc(=O)c(S(=O)(=O)c2ccc(Br)cc2)c(O)n1[C@@H](COC)c1ccccc1` [Example 247, 5-(4-bromobenzenesulfonyl)-6-hydroxy-3-[(1R)-2-methoxy-1-phenylethyl]-2-pentyl-3,4-dihydropyrimidin-4-one], the pEC50 is 7.00 to 8.00.

Take `CCOCc1nc(=O)c(S(=O)(=O)c2ccc(-c3ccc(F)nc3C)cc2)c(O)n1[C@H]1CCc2ccccc21` [Example 326, 1-[(1S)-2,3-dihydro-1H-inden-1-yl]-2-(ethoxymethyl)-5-[4-(6-fluoro-2-methylpyridin-3-yl)benzenesulfonyl]-6-hydroxy-1,4-dihydropyrimidin-4-one]: the pEC50 was 8.00 to 11.00.

For `COC[C@@H](c1ccccc1)n1c(COC(C)C)nc(=O)c(S(=O)(=O)c2ccc(-c3ccc(F)nc3C)cc2)c1O` [Example 321, 5-[4-(6-fluoro-2-methylpyridin-3-yl)benzenesulfonyl]-6-hydroxy-1-[(1R)-2-methoxy-1-phenylethyl]-2-[(propan-2-yloxy)methyl]-1,4-dihydropyrimidin-4-one], the pEC50 is 8.00 to 11.00.

Turning to `CCOCc1nc(=O)c(S(=O)(=O)c2ccc(-c3cncc(F)c3)cc2)c(O)n1[C@H]1CCc2ccccc21` [Example 322, 1-[(1S)-2,3-dihydro-1H-inden-1-yl]-2-(ethoxymethyl)-5-[4-(5-fluoropyridin-3-yl)benzenesulfonyl]-6-hydroxy-1,4-dihydropyrimidin-4-one], the pEC50 was 8.00 to 11.00.

As to `CCCCc1nc(=O)c(S(=O)(=O)c2ccc(-c3ccc(F)nc3C)cc2)c(O)n1[C@@H](CC)c1ccc(C#N)cc1` [Example 267, 4-[(1S)-1-{2-butyl-5-[4-(6-fluoro-2-methylpyridin-3-yl)benzenesulfonyl]-6-hydroxy-4-oxo-1,4-dihydropyrimidin-1-yl}propyl]benzonitrile], the pEC50 was 8.00 to 11.00.

Turning to `CCCCCc1nc(=O)c(S(=O)(=O)c2ccc(-c3cncc(F)c3)cc2)c(O)n1[C@@H](COC)c1ccccc1` [Example 248, 5-[4-(5-fluoropyridin-3-yl)benzenesulfonyl]-6-hydroxy-1-[(1R)-2-methoxy-1-phenylethyl]-2-pentyl-1,4-dihydropyrimidin-4-one], the pEC50 was 8.00 to 11.00.

Regarding `CCOCc1nc(=O)c(S(=O)(=O)c2ccc(Br)c(F)c2)c(O)n1[C@@H](COC)c1ccccc1` [Example 300, 5-(4-bromo-3-fluorobenzenesulfonyl)-2-(ethoxymethyl)-6-hydroxy-1-[(1R)-2-methoxy-1-phenylethyl]-1,4-dihydropyrimidin-4-one], the pEC50 was 8.00 to 11.00.

`CCOCc1nc(=O)c(S(=O)(=O)c2ccc(-c3ccc(F)nc3C)cc2)c(O)n1[C@@H](COC)c1ccccc1` [Example 318, 2-(ethoxymethyl)-5-[4-(6-fluoro-2-methylpyridin-3-yl)benzenesulfonyl]-6-hydroxy-1-[(1R)-2-methoxy-1-phenylethyl]-1,4-dihydropyrimidin-4-one]: the pEC50 is 8.00 to 11.00.

`CCCCc1nc(=O)c(S(=O)(=O)c2ccc(-c3cccnc3C)cc2)c(O)n1[C@@H](CC)c1cccc2c1OCO2` [Example 263, 1-[(1S)-1-(2H-1,3-benzodioxol-4-yl)propyl]-2-butyl-6-hydroxy-5-[4-(2-methylpyridin-3-yl)benzenesulfonyl]-1,4-dihydropyrimidin-4-one]: the pEC50 was 8.00 to 11.00.

The assay is the same for the next values; noted with them: human APJ, intracellular cAMP accumulation; read-out: Human APJ cAMP EC50 Potency range.
With `CCCCc1nc(=O)c(S(=O)(=O)c2ccc(-c3cccnc3C)cc2)c(O)n1[C@H]1CCc2ccccc21` [Example 157, 2-butyl-1-[(1S)-2,3-dihydro-1H-inden-1-yl]-6-hydroxy-5-[4-(2-methylpyridin-3-yl)benzenesulfonyl]-1,4-dihydropyrimidin-4-one], the pEC50 is 8.00 to 11.00.

As to `CCCc1nc(=O)c(S(=O)(=O)c2ccc(-c3cccnc3C)cc2)c(O)n1[C@@H](COC)c1ccccc1` [Example 173, 6-hydroxy-1-[(1R)-2-methoxy-1-phenylethyl]-5-[4-(2-methylpyridin-3-yl)benzenesulfonyl]-2-propyl-1,4-dihydropyrimidin-4-one], the pEC50 is 8.00 to 11.00.

As to `CCCCc1nc(=O)c(S(=O)(=O)c2ccc(-n3ccc(C)cc3=O)cc2)c(O)n1-c1c(OC)cccc1OC` [Example 74, 2-butyl-1-(2,6-dimethoxyphenyl)-6-hydroxy-5-[4-(4-methyl-2-oxo-1,2-dihydropyridin-1-yl)benzenesulfonyl]-1,4-dihydropyrimidin-4-one], the pEC50 is 8.00 to 11.00.

For `CCCCc1nc(=O)c(S(=O)(=O)c2ccc(C)cn2)c(O)n1-c1c(CC)cccc1CC` [Example 104, 2-butyl-1-(2,6-diethylphenyl)-6-hydroxy-5-[(5-methylpyridin-2-yl)sulfonyl]-1,4-dihydropyrimidin-4-one], the pEC50 is 8.00 to 11.00.

`CCCCc1nc(=O)c(S(=O)(=O)c2ccc(-c3nc(C(=O)OCC)co3)cc2)c(O)n1-c1c(OC)cccc1OC` [Example 83, ethyl 2-(4-{[2-butyl-1-(2,6-dimethoxyphenyl)-6-hydroxy-4-oxo-1,4-dihydropyrimidin-5-yl]sulfonyl}phenyl)-1,3-oxazole-4-carboxylate]: the pEC50 was 8.00 to 11.00.

`CCCCc1nc(=O)c(S(=O)(=O)c2ccc(-c3ccnc(F)c3C)cc2)c(O)n1[C@@H](CC)c1ccc2c(c1)OCO2` [Example 211, 1-[(1S)-1-(2H-1,3-benzodioxol-5-yl)propyl]-2-butyl-5-[4-(2-fluoro-3-methylpyridin-4-yl)benzenesulfonyl]-6-hydroxy-1,4-dihydropyrimidin-4-one]: the pEC50 was 8.00 to 11.00.

With `CCCCc1nc(=O)c(S(=O)(=O)c2ccc(-c3ccncc3C)cc2)c(O)n1[C@H](C)c1ccc(OC)cc1` [Example 210, 2-butyl-6-hydroxy-1-[(1R)-1-(4-methoxyphenyl)ethyl]-5-[4-(3-methylpyridin-4-yl)benzenesulfonyl]-1,4-dihydropyrimidin-4-one], the pEC50 was 8.00 to 11.00.

Regarding `COC[C@@H](c1ccccc1)n1c(CC2CC2)nc(=O)c(S(=O)(=O)c2ccc(Br)cc2)c1O` [Example 123, 5-(4-bromobenzenesulfonyl)-2-(cyclopropylmethyl)-6-hydroxy-1-[(1R)-2-methoxy-1-phenylethyl]-1,4-dihydropyrimidin-4-one], the pEC50 was 6.52 to 7.00.

Turning to `COc1cccc(OC)c1-n1c(CCC(C)C)nc(=O)c(S(=O)(=O)c2cccc(-c3ccc(F)nc3)c2)c1O` [Example 23, 1-(2,6-dimethoxyphenyl)-5-[3-(6-fluoropyridin-3-yl)benzenesulfonyl]-6-hydroxy-2-(3-methylbutyl)-1,4-dihydropyrimidin-4-one], the pEC50 was 8.00 to 11.00.

`CCCCc1nc(=O)c(S(=O)(=O)C2CCN(C(=O)C3CC3)CC2)c(O)n1-c1c(OC)cccc1OC` [Example 113, 2-butyl-5-[(1-cyclopropanecarbonyl-piperidin-4-yl)sulfonyl]-1-(2,6-dimethoxyphenyl)-6-hydroxy-1,4-dihydropyrimidin-4-one]: the pEC50 was 8.00 to 11.00.

Broadly, the pEC50 is −log10 of the EC50, conventionally taken in molar units.
